Data on 16 compounds can be found in patent US20230183243A1, “HETEROARYL DERIVATIVES AND PHARMACEUTICAL COMPOSITION COMPRISING SAME AS ACTIVE INGREDIENT” (VORONOI INC., priority 2019, published 2023).

Structures can show the parent of a compound that is named as a salt.

One assay deals with MDA-MB-231 cells. In words: Inhibition of proliferation of triple-negative breast cancer cells, CellTiter-Glo. Format: cell-based. The conditions noted are these: Homo sapiens, 120 h; MDA-MB-231, cultured for 5 days. The method, boiled down:
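MDA-MB-231 cells pre-cultured 24 h (5% CO2, 37 °C), then exposed to compound for 5 days at 12 three-fold dilutions, final 10 μM to 0.05 nM. Viability read by CellTiter-Glo luminescence after 10 min at 37 °C; growth inhibition calculated relative to untreated solvent-control cells.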

Another assay deals with T1, TTK (Homo sapiens, UniProt P33981).
T1 sequence (P33981 1-857): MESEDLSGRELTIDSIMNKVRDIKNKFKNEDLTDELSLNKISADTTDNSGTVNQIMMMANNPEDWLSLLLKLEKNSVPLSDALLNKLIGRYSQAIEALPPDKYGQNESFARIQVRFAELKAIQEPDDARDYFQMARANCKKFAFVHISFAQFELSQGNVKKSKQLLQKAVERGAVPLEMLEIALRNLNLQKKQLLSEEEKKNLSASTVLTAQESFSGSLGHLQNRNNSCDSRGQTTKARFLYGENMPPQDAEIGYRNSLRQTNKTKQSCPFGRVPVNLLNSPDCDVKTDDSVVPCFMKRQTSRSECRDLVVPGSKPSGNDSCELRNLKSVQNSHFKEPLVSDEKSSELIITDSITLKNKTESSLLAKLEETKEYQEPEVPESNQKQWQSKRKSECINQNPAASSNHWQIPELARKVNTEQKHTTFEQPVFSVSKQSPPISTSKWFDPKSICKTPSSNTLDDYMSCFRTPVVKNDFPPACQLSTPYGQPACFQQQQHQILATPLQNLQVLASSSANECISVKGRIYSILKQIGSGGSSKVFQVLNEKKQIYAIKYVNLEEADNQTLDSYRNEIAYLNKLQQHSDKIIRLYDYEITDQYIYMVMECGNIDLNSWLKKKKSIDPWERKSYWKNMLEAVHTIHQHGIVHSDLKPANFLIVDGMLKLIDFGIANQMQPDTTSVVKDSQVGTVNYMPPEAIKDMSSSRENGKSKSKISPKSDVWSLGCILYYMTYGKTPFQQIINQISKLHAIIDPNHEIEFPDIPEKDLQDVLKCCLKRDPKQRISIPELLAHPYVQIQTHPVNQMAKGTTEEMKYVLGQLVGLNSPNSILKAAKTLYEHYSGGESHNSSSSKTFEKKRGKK
The assay can be described thus: TTK enzyme activity, ADP-Glo kinase assay. The class given is biochemical. On the set-up: purchased SignalChem T20-10G. The conditions noted are these: purified human TTK, ATP 10 μM, 25° C., 2 hours. Put shortly: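 Purified human TTK (25 ng) incubated with 10 μM ATP and substrate (0.2 μg) for 2 h at 25 °C in Tris-HCl pH 7.4, MgCl2, BSA, DTT buffer. ADP formation read by ADP-Glo; inhibition calculated against untreated solvent control.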

In another assay the test system is SHP-77. The assay can be described thus: Inhibition of proliferation of small cell lung cancer cells, CellTiter-Glo. The conditions noted are these: Homo sapiens, SHP77, 120 h; SHP-77, cultured for 5 days. Format: cell-based. The method, then:
Specifically, the following test was performed to evaluate the inhibitory activity of the compound according to the present invention against the cell proliferation in the SCLC cells.
To check an inhibitory ability of cell growth in one SCLC cell line, a test was performed as follows. Cells were seeded in 180 μL of a culture broth at a density of 2,000 to 3,000 cells/well in a white clear bottom 96-well plate (Corning) according to the growth ability of each cell, and then cultured for 24 hours under conditions of 5% CO2 and 37° C. Thereafter, the compound was prepared by diluting a 10 mM stock solution three-fold with 100% DMSO at a total of 12 concentrations so that a peak concentration of the compound was in a range of 10 mM to 0.05 μM, and the diluted compound was then diluted in each cell culture medium so that a final concentration of the compound was in a range of 100 μM to 0.5 nM. 20 μL of a diluted solution diluted with a medium was added to the cell solution in which cells were seeded in the 96-well plate on the previous day so that a final concentration of the diluted solution was in a range of 10 μM to 0.05 nM. Each of the cells was cultured for 5 days. To check cell viability, a mixture provided in aCellTiter-Glo® Luminescent Cell Viability Assay Kit (Promega) was added to each of the cultured cell media, and cultured for another 10 minutes under a condition of 37° C. Then, a degree of luminescence (fluorescence) was measured. A degree of inhibition of the cell growth according to the treatment concentration of each of the compounds was calculated based on the fluorescence of the solvent control cells which were not treated with the compound. In this case, the concentration of each of the compounds inhibiting 50% of the cell growth was determined to be a GI50 (nM) value, and calculated using Prism (Version 7.01; GraphPad) software.

Take `COc1cc(-c2ccnn2C)ccc1Nc1nc(NC2CCCC2)c2c(C#N)c[nH]c2n1` [Example 16, 4-(cyclopentylamino)-2-((2-methoxy-4-(1-methyl-1H-pyrazol-5-yl)phenyl)amino)-7H-pyrrolo[2,3-d] pyrimidine-5-carbonitrile]: the GI50 in the assay on MDA-MB-231 cells and with SHP-77 was less than 100 nM each time. The compound further had an IC50 against TTK of less than 50 nM.
`N#Cc1c[nH]c2nc(Nc3ccc(N4CCCS4(=O)=O)c(F)c3)nc(NC3CCOCC3)c12` [Example 29]: the GI50 in the assay with MDA-MB-231 cells and in the assay with SHP-77 was 100 to 1000 nM throughout. The IC50 against TTK is less than 50 nM.
In the case of `Cn1nccc1-c1ccc(Nc2nc(NC3CCCC3)c3c(C#N)c[nH]c3n2)c2c1OCCO2` [Example 38, 4-(cyclopentylamino)-2-((8-(1-methyl-1H-pyrazol-5-yl)-2,3-dihydrobenzo[b][1,4]dioxin-5-yl)amino)-7H-pyrrolo[2,3-d] pyrimidine-5-carbonitrile], the GI50 in the assay with MDA-MB-231 cells and in the assay on SHP-77 was less than 100 nM in each case. Besides, the IC50 at TTK is less than 50 nM.
Turning to `Cn1nccc1-c1ccc(Nc2nc(NC3CCOCC3)c3c(C#N)c[nH]c3n2)c2c1OCCO2` [Example 40, 2-((8-(1-methyl-1H-pyrazol-5-yl)-2,3-dihydrobenzo[b][1,4]dioxin-5-yl)amino)-4-((tetrahydro-2H-pyran-4-yl)amino)-7H-pyrrolo[2,3-d] pyrimidine-5-carbonitrile], the GI50 with MDA-MB-231 cells and in the assay with SHP-77 was less than 100 nM each time. This compound returned an IC50 against TTK of less than 50 nM.
On to `COCCNc1nc(Nc2ccc(-c3ccnn3C)c3c2OCCO3)nc2[nH]cc(C#N)c12` [Example 49, 4-((2-methoxyethyl)amino)-2-((8-(1-methyl-1H-pyrazol-5-yl)-2,3-dihydrobenzo[b][1,4]dioxin-5-yl)amino)-7H-pyrrolo[2,3-d] pyrimidine-5-carbonitrile], for which the concentration for 50% growth inhibition (GI50) in the assay with MDA-MB-231 cells and in the assay with SHP-77 was less than 100 nM each time. The same compound gave an IC50 on TTK of less than 50 nM.
In the case of `Cn1nccc1-c1ccc(Nc2nc(NCC3CCCC3)c3c(C#N)c[nH]c3n2)c2c1OCCO2` [Example 50, 4-((cyclopentylmethyl)amino)-2-((8-(1-methyl-1H-pyrazol-5-yl)-2,3-dihydrobenzo[b][1,4]dioxin-5-yl)amino)-7H-pyrrolo[2,3-d] pyrimidine-5-carbonitrile hydrochloride], the GI50 in the assay on MDA-MB-231 cells and in the assay on SHP-77 was less than 100 nM throughout. Besides, the IC50 on TTK lay in the range of 50 to 200 nM.
As for `N#Cc1c[nH]c2nc(Nc3ccc(N4CCCCS4(=O)=O)c(F)c3)nc(NC3CCCC3)c12` [Example 57, 4-(cyclopentylamino)-2-((4-(1,1-dioxido-l,2-thiazinan-2-yl)-3-fluorophenyl)amino)-7H-pyrrolo[2,3-d] pyrimidine-5-carbonitrile], the GI50 in the assay with MDA-MB-231 cells was 100 to 1000 nM; with SHP-77, less than 100 nM. On TTK, the IC50 lay within 50 to 200 nM.
For `N#Cc1c[nH]c2nc(Nc3ccc(N4CCCCS4(=O)=O)c(F)c3)nc(NC3CCOCC3)c12` [Example 58, 2-((4-(1,1-dioxido-1,2-thiazinan-2-yl)-3-fluorophenyl)amino)-4-((tetrahydro-2H-pyran-4-yl)amino)-7H-pyrrolo[2,3-d] pyrimidine-5-carbonitrile], the GI50 with MDA-MB-231 cells and in the assay with SHP-77 was less than 100 nM in each case. The IC50 on TTK is less than 50 nM.
With `Cn1nccc1-c1ccc(Nc2nc(NC3CCCCCC3)c3c(C#N)c[nH]c3n2)c2c1OCCO2` [Example 59, 4-(cycloheptylamino)-2-((8-(1-methyl-1H-pyrazol-5-yl)-2,3-dihydrobenzo[b][1,4]dioxin-5-yl)amino)-7H-pyrrolo[2,3-d] pyrimidine-5-carbonitrile], the GI50 in the assay on MDA-MB-231 cells and in the assay on SHP-77 was less than 100 nM throughout. For the same compound, the IC50 against TTK was in the range of 200 to 1000 nM.
For the compound `Cn1nccc1-c1ccc(Nc2nc(NCC(C)(C)C)c3c(C#N)c[nH]c3n2)c2c1OCCO2` [Example 60, 2-((8-(1-methyl-1H-pyrazol-5-yl)-2,3-dihydrobenzo[b][1,4]dioxin-5-yl)amino)-4-(neopentylamino)-7H-pyrrolo[2,3-d] pyrimidine-5-carbonitrile], the GI50 in the assay on MDA-MB-231 cells and in the assay with SHP-77 was less than 100 nM each time. Further, on TTK, the IC50 lay within 50 to 200 nM.
On to `Cn1nccc1-c1ccc(Nc2nc(NC3C[C@H]4CC[C@@H]3C4)c3c(C#N)c[nH]c3n2)c2c1OCCO2` (stereo partly drawn) [Example 61, 4-(((1R,4S)-bicyclo[2.2.l]heptan-2-yl)amino)-2-((8-(1-methyl-1H-pyrazol-5-yl)-2,3-dihydrobenzo[b][1,4]dioxin-5-yl)amino)-7H-pyrrolo[2,3-d] pyrimidine-5-carbonitrile], for which the GI50 in the assay on MDA-MB-231 cells and with SHP-77 was less than 100 nM in each case. The compound further showed an IC50 against TTK of 50 to 200 nM.
With `CC(C)S(=O)(=O)CCNc1nc(Nc2ccc(-c3ccnn3C)c3c2OCCO3)nc2[nH]cc(C#N)c12` [Example 83, 4-((2-(isopropylsulfonyl)ethyl)amino)-2-((8-(1-methyl-1H-pyrazol-5-yl)-2,3-dihydrobenzo[b][1,4]dioxin-5-yl)amino)-7H-pyrrolo[2,3-d] pyrimidine-5-carbonitrile 2,2,2-trifluoroacetate], the GI50 in the assay on MDA-MB-231 cells and with SHP-77 was 100 to 1000 nM throughout. The compound also had an IC50 against TTK of less than 50 nM.
For the compound `Cn1nccc1-c1ccc(Nc2nc(NCCS(C)(=O)=O)c3c(C#N)c[nH]c3n2)c2c1OCCO2` [Example 84, 2-((8-(1-methyl-1H-pyrazol-5-yl)-2,3-dihydrobenzo[b][1,4]dioxin-5-yl)amino)-4-((2-(methylsulfonyl)ethyl)amino)-7H-pyrrolo[2,3-d] pyrimidine-5-carbonitrile], the GI50 with MDA-MB-231 cells and in the assay with SHP-77 was more than 1000 nM each time. Further, on TTK, the IC50 is less than 50 nM.
`C[C@@H](Oc1cc(C(=O)N(C)C)ccc1Nc1nc(O[C@H]2CC[C@@](C)(O)CC2)c2c(Cl)c[nH]c2n1)C(F)(F)F` [Example 86, 4-((5-chloro-4-(((1s,4S)-4-hydroxy-4-methylcyclohexyl)oxy)-7H-pyrrolo[2,3-d]pyrimidin-2-yl)amino)-N,N-dimethyl-3-(((R)-1,1,1-trifluoropropan-2-yl)oxy)benzamide] registered a GI50 in the assay on MDA-MB-231 cells of less than 100 nM. This compound yielded an IC50 at TTK of less than 50 nM.
`Cn1nccc1-c1ccc(Nc2nc(NC3COC3)c3c(C#N)c[nH]c3n2)c2c1OCCO2` [Example 160, 2-((8-(1-methyl-1H-pyrazol-5-yl)-2,3-dihydrobenzo[b][1,4]dioxin-5-yl)amino)-4-(oxetan-3-ylamino)-7H-pyrrolo[2,3-d] pyrimidine-5-carbonitrile]: the GI50 with MDA-MB-231 cells and with SHP-77 was more than 1000 nM each time.
Turning to `COc1cc(-c2ccnn2C)ccc1Nc1nc(NC2COC2)c2c(C#N)c[nH]c2n1` [Example 161, 2-((2-methoxy-4-(1-methyl-1H-pyrazol-5-yl)phenyl)amino)-4-(oxetan-3-ylamino)-7H-pyrrolo[2,3-d] pyrimidine-5-carbonitrile], the GI50 with MDA-MB-231 cells and in the assay with SHP-77 was more than 1000 nM each time.
